In patent publication US9844540B2, “Combination therapies for treating cancer” (RedHill Biopharma Ltd., priority 2015, dated 2017):
Values joined by “and” are separate entries in the source; they are usually repeats but may differ in a detail not shown here. Identical values can stand only once. Like-named read-outs stand apart in the source and are kept apart here.

Legend:
[1] = system: Hs 766T pancreatic cancer cell line; experiment: In vitro cytotoxicity MTT assay, Hs 766T; format: cell-based, human; conditions: 3 days
Description: (§1) The following experiment was performed to assess the potential of combination agents of the present disclosure for their capability of inhibiting the growth or proliferation of pancreatic cancer cells comprising contacting pancreatic cancer cells with effective amounts of the agents, alone and in combination, thereby inhibiting the growth or proliferation of the pancreatic cancer cells.
(§2) The present study investigated whether clarithromycin+rifabutin+clofazimine (“Combo”) would be synergistic with [3-(4-chlorophenyl)-adamantane-1-carboxylic acid (pyridin-4-ylmethyl)amide] (“ABC2640”) against MIA PaCa-2, PANC-1, and Hs 766T pancreatic cancer cell lines. Hs 766T is a cell line derived from the lymph node metastasis of a person with pancreas carcinoma. MIA PaCa-2 is a cell line derived from the pancreas adenocarcinoma of a person who presented with abdominal pain for 6 months and a palpable upper abdominal mass. PANC-1 was cultured from a person with an adenocarcinoma in the head of the pancreas which invaded the duodenal wall.
(§3) The MTT assay is commonly used to determine cytotoxicity of potential medicinal agents, since these types of materials are expected to stimulate or inhibit cell viability and growth. Briefly, 3,000 cells were plated/well—100 μl/well. After overnight, prior to the assay, 50 μl supernatant was removed from each well. Each drug was added at 4× of the final concentration (in 50 μl). Total volume of each well was 200 μl. 4 wells had been used as a control and contained no cells at all. The plate was developed after being incubated for 3 days at 37° C. 20 μl of Promega Substrate Cell Titer 96 Aqueous One Solution Reagent was added to each well, incubated at 37° C. and read OD at 490 nm. The MTT test is based on the enzymatic reduction of the tetrazolium salt MTT [3-(4,5-dimethylthiazol-2-yl)-2,5-diphenyl-tetrazoliumbromide^+++] in living, metabolically active cells but not in dead cells. The reaction is carried out in situ in multiwell plates, and the reaction product, a purple-colored formazan soluble in dimethylsulfoxide, is measured colorimetrically, using a multiwell plate reader.

[2] = system: MIA PaCa-2 pancreatic cancer cell line; experiment: In vitro cytotoxicity MTT assay, MIA PaCa-2; format: cell-based, human; conditions: 3 days
Description: as §1, §2, §3

[3] = system: PANC-1 pancreatic cancer cell line; experiment: In vitro cytotoxicity MTT assay, PANC-1; format: cell-based, human; conditions: 3 days
Description: as §1, §2, §3

[4] = system: MCF-7 human breast adenocarcinoma cells; experiment: Cytotoxicity, SRB assay, MCF-7; format: cell-based; conditions: MCF7, 48 h, read-out: IC50 (concentration that inhibited proliferation by 50%)
Description: (§4) To assess the biological efficacy of ABC294640 in intact cells, ABC294640 was evaluated for cytotoxicity using human cancer cell lines. These experiments followed methods that have been extensively used. Cell lines tested included MCF-7 human breast adenocarcinoma cells and MCF-10A non-transformed human breast epithelial cells. The indicated cell lines were treated with varying doses of ABC294640 for 48 h. Cell survival was then determined using the SRB binding assay (Skehan et al., 1990, J Natl Cancer Inst 82: 1107), and the concentration of ABC294640 that inhibited proliferation by 50% (the IC50) was calculated. […] ABC294640 is antiproliferative at sub-to-low-micromolar.

[5] = system: MCF-10A non-transformed human breast epithelial cells; experiment: Cytotoxicity, SRB assay, MCF-10A; format: cell-based; conditions: 48 h, SRB binding assay, read-out: IC50 (concentration that inhibited proliferation by 50%)
Description: as §4

physchem = format: physicochemical; conditions: aqueous with cosolvent or surfactant or cyclodextrin
[6] = mouse, in vivo
Description: […]. […] ABC294640 could also be administered orally to mice at doses up to at least 100 mg/kg without noticeable toxicity.

[7] = system: mouse JC mammary adenocarcinoma cell line; experiment: Antitumor activity in syngeneic JC mammary adenocarcinoma model; format: in vivo, Balb/c mice
Description: The antitumor activity of ABC294640 was evaluated using a syngeneic tumor model that uses the mouse JC mammary adenocarcinoma cell line growing subcutaneously in immunocompetent Balb/c mice (Lee et al., 2003, Oncol Res 14: 49). These cells express elevated levels of SK activity relative to non-transformed cells, as well as the multidrug resistance phenotype due to P-glycoprotein activity.
Balb/c mice, 6-8 weeks old, were injected subcutaneously with 10^6 JC cells suspended in phosphate-buffered saline. ABC294640 was dissolved in PEG400 and administered to mice every-other day at a dose of 100 mg/kg. Body weights and tumor volumes were monitored daily. […] ABC294640 inhibited tumor growth relative to controls by 69%.

[8] = system: human tumor cell strain K562-WT
Description: (§5) The human tumor cell strain K562-WT and the tumor cell strain F46-WT of the mouse (WT=wild type=sensitive to cytostatic treatment=no amplification of the MDR-gene) is treated over several weeks with staged increase in concentrations of adriamycin. […] The formation of resistance is based on the amplification of the MDR gene.

[9] = system: tumor cell strain F46-WT of the mouse; conditions: for formation of resistance to adriamycin: 6 to 8 weeks
Description: as §5
The tumor cell strain F4-6-WT of the mouse (WT=wild type=sensitive to cytostatic treatment=no amplification of the MDR gene) is treated over several weeks with staged increases in concentration of adriamycin. […] The formation of resistance is based on the amplification of the MDR gene. The levels of β-actin MRNA are likewise analyzed as comparison. β-actin is used as an internal control for the RNA quantity.

AH13r sarcoma cells = experiment: BVDU and chemotherapy-induced apoptosis in AH13r sarcoma cells; format: cell-based
From the text: AH13r cells were subjected to increasing doses of the cytostatic mitomycin C (MMC). […] This inhibitory effect was maintained even after discontinuation of the cytostatic in the next cycle, in the so-called recovery phase. The cells without MMC and BVDU continued to grow without inhibition. […] The indication that the reduction in cell number is based on apoptosis, was detected by means of Hoechst 33258/propidium iodide (Hopi) double colouration.

Hep-G2 (liver) = experiment: Tumor cell line panel, sulforhodamine B, Hep-G2; format: cell-based; conditions: Homo sapiens, HepG2, 48 hours, mean ± sd
Description: (§6) To examine the range of anticancer, the chemotherapeutic potency of ABC294640 towards a panel of varied human tumor cell lines representing several major tumor types were determined. […] [table]

T24 (bladder) = experiment: Tumor cell line panel, sulforhodamine B, T24; format: cell-based; conditions: Homo sapiens, 48 hours, mean ± sd
Description: as §6

[10] = system: LPS-induced cytokine production; experiment: LPS-induced cytokine production in C57BL/6 mice; format: in vivo; conditions: serum 2 hours after LPS; dosed once 1 hour before LPS; dexamethasone 5 mg/kg i.p., RHB-104 108 mg/kg p.o.
Description: This study was performed to evaluate the effects of RHB-104 (as detailed above) dosed orally at 108 mg/kg on lipopolysaccharide (LPS)-induced cytokine production in mice. The LPS-induced cytokine production model in mice is commonly used to test the ability of compounds to suppress production of pro-inflammatory cytokines TNF and IL-6 in vivo.
In this model LPS is injected into mice intraperitoneally (i.p.) or intravenously. Two hours after the LPS injection, concentrations of IL-6 and TNF reach peak levels in serum of the injected mice.
30 female C57BL/6 mice, 11 weeks old, were dosed once with RHB-104, then injected with LPS 1 hour later. 2 hours after LPS injection, mice were bled and serum was isolated. The concentration of cytokines in serum was measured. Dexamethasone administered at 5 mg/kg i.p. was used as positive control for suppression of the immune response. Dexamethasone suppresses production of pro-inflammatory cytokines TNF and IL-6 increases production of anti-inflammatory cytokine IL-10.
Serum concentrations of IL-2, IL-4, IL-6, IL-10, IL-17, IFN-γ and TNF were measured using cytokine bead analysis (CBA) Th1/Th2/Th17 kit (Becton Dickinson). Concentrations of cytokines in serum between groups were compared using 2-tailed Student's t-test.

BN472 breast cancer = experiment: In vivo assay of WX-671 in the BN472 rat breast cancer model; set-up: species or system brown Norwegian rats; conditions: WX-UK1 1 mg/kg i.p. daily, 30 days
Description: The treatments started 72 h after tumor implantation and were repeated daily until the animals were sacrificed after 30 days. The control group (A) received 0.75 ml of the substance-free substance carrier solution consisting of 5% ethanol, 5% D-mannitol and 5% Tween 20 in water orally by gavage.
Growth of the inoculated tumors was determined in the dimensions length and width twice weekly, using a slide gauge. After the animals had been sacrificed, the therapy end points, tumor weight, weights of the axillary and intraperitoneal lymph nodes and also the number of macroscopic lung metastases were determined.

[11] = system: rat pancreatic tumor model, CA20948; experiment: In vivo test of WX-671 in the pancreatic adenocarcinoma model CA20948; conditions: 0.3 mg/kg by intraperitoneal injection; vehicle 30.7%
Description: Groups of eighteen rats were inoculated with tumor by intraperitoneal injection of a tumor cell suspension, prepared from a solid tumor harvested from a donor rat.
In this model the intraperitoneally grafted cells migrate to the pancreas to form a pancreatic tumor intimately associated with the pancreas. Within 3 weeks the tumor disseminates typically to the liver to form metastatic lesions which can be counted. Treatments at dose levels of 0.03, 0.3 and 3.0 mg/kg once daily were orally applied daily from day 3 onwards.
The percentage of large liver foci was determined by dividing the number of large lesions by the number of total lesion detected on the livers.

For `O=C(NCc1ccncc1)C12CC3CC(C1)CC(c1ccc(Cl)cc1)(C3)C2` [ABC640, 3-(4-chlorophenyl)-adamantane-1-carboxylic acid (pyridin-4-ylmethyl)amide], the “Toxicity (%)” value ([1]; 25 μM) was 17%, the “Toxicity (%)” value ([1]; 50 μM) was 72% and the “Toxicity (%)” value ([2]; 25 μM) was 11%. The “Toxicity (%)” value ([2]; 50 μM) was 92%, the “Toxicity (%)” value ([3]; 25 μM) was 0% and the “Toxicity (%)” value ([3]; 50 μM) was 68%.

For `O=C(NCc1ccncc1)C12CC3CC(C1)CC(c1ccc(Cl)cc1)(C3)C2` [ABC294640, 3-(4-chlorophenyl)-adamantane-1-carboxylic acid (pyridin-4-ylmethyl)amide], the IC50 [4] was 17 µM, the IC50 [5] was 21 µM and the solubility (physchem) was ≥ 15000 µg/mL and 30000 µM to 40000 µM. For the same molecule, the “dose with no immediate or delayed toxicity, acute toxicity” value ([6]; female, Swiss-Webster, ip) was “at least 50 mg/kg”, the “oral dose without noticeable toxicity” value ([6]; po) was “at least 100 mg/kg” and the “inhibition of tumor growth relative to controls” value ([7]; 100 mg/kg in PEG400 every-other day) was 69%. For the same molecule, the “decrease of tumor growth versus control animals” value ([7]; 100 mg/kg in PEG400 every-other day, day 16) was greater than 70% and the “oral dose with antitumor activity (dose-response studies)” value ([7]; orally administered) was no less than 35 mg/kg.

With `O=c1[nH]c(=O)n(C2CC(O)C(CO)O2)cc1/C=C/Br` (centres unmarked) [BVDU, (E)-5-(2-bromovinyl)-2-deoxyuridine] the “formation of resistance to adriamycin” value ([8]; K562-WT, 0.5 or 1 μg/ml BVDU together with staged increasing adriamycin, 6 to 8 weeks) was “prevents the formation of resistance to adriamycin”, the “concentration from which BVDU acts in a toxic manner” value ([8]; human) was “about 10 μg/ml” and the “formation of resistance to adriamycin” value ([9]; F4-6-WT, 1 μg/ml BVDU with adriamycin) was “prevented the formation of resistance to adriamycin”. The “formation of resistance to adriamycin” value ([9]; F46-WT, 0.5 or 1 μg/ml BVDU together with staged increasing adriamycin) was “prevents the formation of resistance to adriamycin”, the “concentration from which BVDU acts in a toxic manner” value ([9]; mouse) was “about 8 μg/ml” and the “toxic effect, given alone” value (AH13r sarcoma cells) was “no toxic effect”. For the same molecule, the “cell growth in the recovery phase after discontinuation of the cytostatic” value (AH13r sarcoma cells; continued BVDU without MMC) was “greatly inhibited in their growth”.

For `O=C(NCc1ccncc1)C12CC3CC(C1)CC(c1ccc(Cl)cc1)(C3)C2` [Compound 62, 3-(4-Chloro-phenyl)-adamantane-1-carboxylic acid(pyridin-4-ylmethyl)-amide], the IC50 (Hep-G2 (liver)) was 6 ± 2.6 µM and the IC50 (T24 (bladder)) was 39.4 ± 7.4 µM.

For `C[C@@H]1C[C@H]2[C@@H]3CCC4=CC(=O)C=C[C@]4(C)[C@@]3(F)[C@@H](O)C[C@]2(C)[C@@]1(O)C(=O)CO` [Dexamethasone, dexamethasone], the “IL-6 (pg/mL) ± SD” value [10] was 1259 ± 295 pg/mL, the “IL-10 (pg/mL) ± SD” value [10] was 106 ± 66 pg/mL and the “TNF (pg/mL) ± SD” value [10] was 35 ± 10 pg/mL.

With `CCOC(=O)N1CCN(C(=O)[C@H](Cc2cccc(C(=N)N)c2)NS(=O)(=O)c2c(C(C)C)cc(C(C)C)cc2C(C)C)CC1.Cl` [UK-1] the “Toxicity (%)” value ([1]; 5 μM) was 35%, the “Toxicity (%)” value ([1]; 10 μM) was 28% and the “Toxicity (%)” value ([1]; 20 μM) was 19%. For the same molecule, the “Toxicity (%)” value ([2]; 5 μM) was 33%, the “Toxicity (%)” value ([2]; 10 μM) was 0% and the “Toxicity (%)” value ([2]; 20 μM) was 0%. The “Toxicity (%)” value ([3]; 5 μM) was 0%, the “Toxicity (%)” value ([3]; 10 μM) was 0% and the “Toxicity (%)” value ([3]; 20 μM) was 14%.

In the case of `CCOC(=O)N1CCN(C(=O)[C@H](Cc2cccc(C(=N)N)c2)NS(=O)(=O)c2c(C(C)C)cc(C(C)C)cc2C(C)C)CC1` [WX-UK1, Na-(2,4,6-triisopropylphenylsulfonyl)-3-amidino-(L)-phenylalanine-4-ethoxycarbonylpiperazide], the “reduction of average tumor weights at the end of the treatment compared to the control” value (BN472 breast cancer) is reported as “approx. 5%” and the “percentage large mets (>2 mm liver lesions of total liver lesions)” value [11] is reported as 13.4%.

For `COc1cccc2c1C(=O)c1c(O)c3c(c(O)c1C2=O)C[C@@](O)(C(=O)CO)C[C@@H]3O[C@H]1C[C@H](N)[C@H](O)[C@H](C)O1` [adriamycin], the “toxic effect on non-resistant cells” value ([8]; K562-WT, 20 ng/ml, treatment time 4 days) was “severely toxic effect”.

For `CC[C@H]1OC(=O)[C@H](C)[C@@H](O[C@H]2C[C@@](C)(OC)[C@@H](O)[C@H](C)O2)[C@H](C)[C@@H](O[C@@H]2O[C@H](C)C[C@H](N(C)C)[C@H]2O)[C@](C)(OC)C[C@@H](C)C(=O)[C@H](C)[C@@H](O)[C@]1(C)O` [clarithromycin, Clarithromycin], the “Toxicity (%)” value ([1]; 100 μM) was 29%, the “Toxicity (%)” value ([2]; 100 μM) was 0% and the “Toxicity (%)” value ([3]; 100 μM) was 7%.

With `CC(C)/N=c1\cc2n(-c3ccc(Cl)cc3)c3ccccc3nc-2cc1Nc1ccc(Cl)cc1` [clofazimine, Clofazimine] the “Toxicity (%)” value ([1]; 5 μM) was 62%, the “Toxicity (%)” value ([2]; 5 μM) was 4% and the “Toxicity (%)” value ([3]; 5 μM) was 41%.

With `CO[C@H]1/C=C/O[C@@]2(C)Oc3c(C)c(O)c4c(c3C2=O)C2=NC3(CCN(CC(C)C)CC3)NC2=C(NC(=O)/C(C)=C\C=C\[C@H](C)[C@H](O)[C@@H](C)[C@@H](O)[C@@H](C)[C@H](OC(C)=O)[C@@H]1C)C4=O` [rifabutin, Rifabutin] the “Toxicity (%)” value ([1]; 70 μM) was 20%, the “Toxicity (%)” value ([2]; 35 μM) was 8% and the “Toxicity (%)” value ([3]; 70 μM) was 0%.
